The source of these data is patent US10273468B2 (priority 2016, dated 2019).

The target in assay [1] is T1, Tet(55) (Unknown prokaryotic organism, UniProt A0A0H4TXY1). Description: biochemical.
The target of assay [2] is T2, Tet(50) (Unknown prokaryotic organism, UniProt A0A059WYP6). The class given is biochemical. Particulars: 1 mM anhydrotetracycline, 0.1 mM tetracycline.
For assay [3], the target named is T1, Tet(55). Nature of the assay: biochemical. This is another data set of the same source.
Assay [4] addresses T1, Tet(55). The class given is biochemical. As to conditions: 1 mM anhydrotetracycline, 0.1 mM tetracycline.
Assay [5] concerns the target T3, Tet(56) (Legionella longbeachae serogroup 1, UniProt D3HKY4). The class given is biochemical, L. longbeachae. Particulars: 1 mM anhydrotetracycline, 0.1 mM tetracycline.
Assay [6] deals with T2, Tet(50). Description: biochemical.
Assay [7] addresses T3, Tet(56). Description: biochemical.
Another assay deals with Tet(51). In kind it is biochemical. As to conditions: 1 mM anhydrotetracycline, 0.1 mM tetracycline.
The target of assay [8] is T4, Tet(X) (Bacteroides thetaiotaomicron, UniProt Q93L51). As to conditions: by Tet(X); cited from earlier work.
The test system of the next assay is Tet(47-56). Particulars: by Tet(47-56); cited from earlier work.
For assay [9], the target named is T4, Tet(X). In kind it is biochemical. As to conditions: 1 mM anhydrotetracycline, 0.1 mM tetracycline.
Another assay concerns L. longbeacheae. In kind it is cell-based.

“Also recorded” adds a separate entry of the source. Like-named read-outs stand apart in the source and are kept apart here.

In turn, `Cc1c2c(c(O)c3c(O)ccc(Cl)c13)C(=O)[C@]1(O)C(=O)C(C(N)=O)=C(O)[C@@H](N(C)C)[C@@H]1C2` [anhydrochlortetracycline, (4S,4aS,12aS)-7-chloro-4-(dimethylamino)-3,10,11,12a-tetrahydroxy-6-methyl-1,12-dioxo-1,4,4a,5,12,12a-hexahydrotetracene-2-carboxamide] returned an IC50 against Tet(55) [1] of 9 ± 1 µM.

In turn, `CN(C)[C@@H]1C(O)=C(C(N)=O)C(=O)[C@@]2(O)C(=O)c3c(cc4c(Cl)ccc(O)c4c3O)C[C@@H]12` [anhydrodemeclocycline, (4S,4aS,12aS)-7-chloro-4-(dimethylamino)-3,10,11,12a-tetrahydroxy-1,12-dioxo-1,4,4a,5,12,12a-hexahydrotetracene-2-carboxamide] gave a 50% inhibitory concentration (IC50) on Tet(55) [1] of 9 ± 1 µM.

For the compound `Cc1c2c(c(O)c3c(O)ccc(I)c13)C(=O)[C@]1(O)C(=O)C(C(N)=O)=C(O)[C@@H](N(C)C)[C@@H]1C2` [anhydroiodotetracycline, (4S,4aS,12aS)-4-(dimethylamino)-3,10,11,12a-tetrahydroxy-7-iodo-6-methyl-1,12-dioxo-1,4,4a,5,12,12a-hexahydrotetracene-2-carboxamide], on Tet(55) [1], the half-maximal inhibitory concentration (IC50) was found to be 6 ± 1 µM.

In the case of `Cc1c2c(c(O)c3c(O)cccc13)C(=O)[C@]1(O)C(=O)C(C(N)=O)=C(O)[C@@H](N(C)C)[C@@H]1C2` [anhydrotetracycline], the “effect on enzymatic tetracycline degradation (HPLC)” value is reported as “sufficient to decrease or prevent tetracycline degradation” on Tet(50) [2]; “sufficient to decrease or prevent tetracycline degradation” at Tet(55) [4]; “tetracycline is not degraded” at Tet(56) [5]; “sufficient to decrease or prevent tetracycline degradation” in the assay on Tet(51); “able to prevent tetracycline degradation; also recorded: sufficient to decrease or prevent tetracycline degradation” at Tet(X) [9]. Further, the IC50 at Tet(55) [3] was 25.6 ± 1.2 µM; against Tet(50) [6], 83.2 ± 1.2 µM; at Tet(56) [7] it was 37.1 ± 1.1 µM. The enzymatic degradation result was “slowly degraded” on Tet(X) [8] and “not degraded” in the assay on Tet(47-56). The synergy with tetracycline result in the assay on L. longbeacheae was “synergy was not observed”.

A word on the IC50: it is the concentration that gives 50% inhibition. High values mean weaker potency, low ones greater potency.
